US5089273A, “Ecteinascidins 729, 743, 745, 759A, 759B and 770” (priority 1990, dated 1992)
Like-named read-outs stand apart in the source and are kept apart here.

Assays:
Format in all cases: cell-based
bacteria = assay: Antibacterial Activity (disk zone of inhibition, Example 4)
Description: | Zone of inhibition (mm)

M. luteus = assay: Antimicrobial activity vs. M. luteus (disk zones of inhibition); settings: for zone of inhibition at 0.4 µg/disc: 400 ng/6.35-mm disk; for times less potent than ecteinascidins 729 and 743: relative to ecteinascidins 729 and 743; for zone of inhibition at 0.2 µg/disc: 200 ng/6.35-mm disk
Method: (§1) The antimicrobial activities (vs. M. luteus) and the cytotoxic activities (vs. CV-1 cells) of the ecteinascidins and ecteinascidin 743 derivatives are shown in Table 1 and 2. […] All of the derivatives of ecteinascidin 743 that were prepared have antimicrobial and cytotoxic activities.

CV-1 cells = assay: Cytotoxic activity vs. CV-1 cells (disk zones of inhibition); settings: for zone of inhibition at 0.05 µg/disc / zone of inhibition at 0.1 µg/disc / zone of inhibition at 0.2 µg/disc / zone of inhibition at 0.4 µg/disc / zone of inhibition at 0.8 µg/disc / zone of inhibition at 1.6 µg/disc: Cercopithecidae, read-out: Zones of Inhibition
Method: as §1

[1] = Micrococcus luteus, 800 ng/6.35-mm disk
[2] = Micrococcus luteus, 1600 ng/6.35-mm disk

Row | Compound | zone of inhibition at 0.4 µg/disc (M. luteus; Micrococcus luteus) [mm] | zone of inhibition at 0.8 µg/disc (M. luteus; [1]) [mm] | zone of inhibition at 1.6 µg/disc (M. luteus; [2]) [mm] | times less potent than ecteinascidins 729 and 743 (M. luteus) | zone of inhibition at 0.05 µg/disc (CV-1 cells; 50 ng/6.35-mm disk) [mm] | zone of inhibition at 0.1 µg/disc (CV-1 cells; 100 ng/6.35-mm disk) [mm] | zone of inhibition at 0.2 µg/disc (CV-1 cells; 200 ng/6.35-mm disk) [mm] | zone of inhibition at 0.4 µg/disc (CV-1 cells; 400 ng/6.35-mm disk) [mm] | zone of inhibition at 0.8 µg/disc (CV-1 cells; 800 ng/6.35-mm disk) [mm] | zone of inhibition at 1.6 µg/disc (CV-1 cells; 1600 ng/6.35-mm disk) [mm] | zone of inhibition at 0.2 µg/disc (M. luteus; Micrococcus luteus) [mm] | further results
1 | COc1cc2c(cc1O)CCN[C@]21CS[C@@H]2c3c(OC(C)=O)c(C)c4c(c3[C@H](COC1=O)N1[C@@H]2[C@H]2c3c(cc(C)c(OC)c3O)C[C@@H]([C@@H]1C#N)N2C)OCO4 [Ecteinascidin 770] | 9 | 12 | 15 | four to eight times less potent | 10 | 14 | 16 | 20 | 24 | 25 | – | Zone of inhibition (bacteria; 0.1 μg/disk): trace; zone of inhibition at 1 µg/disc (bacteria; 1 μg/disk): 14 mm
2 | COc1cc2c(cc1OC)[C@@]1(CS[C@@H]3c4c(OC(C)=O)c(C)c5c(c4[C@H](COC1=O)N1[C@@H]3[C@H]3c4c(cc(C)c(OC)c4O)C[C@@H]([C@@H]1O)N3C)OCO5)NCC2 [Mono- -- O-methyl, Mono-O-methylecteinascidin 743] | 11 | 14 | 14 | – | – | – | – | – | – | – | 8 | zone of inhibition at 0.05 µg/disc (CV-1 cells): 13 mm; zone of inhibition at 0.1 µg/disc (CV-1 cells): 22 mm; zone of inhibition at 0.2 µg/disc (CV-1 cells): 20 mm; zone of inhibition at 0.4 µg/disc (CV-1 cells): 23 mm; zone of inhibition at 0.8 µg/disc (CV-1 cells): 25 mm; zone of inhibition at 1.6 µg/disc (CV-1 cells): 26 mm
3 | COc1cc2c(cc1OC(C)=O)CCN[C@]21CS[C@@H]2c3c(OC(C)=O)c(C)c4c(c3[C@H](COC1=O)N1[C@@H]2[C@H]2c3c(cc(C)c(OC)c3O)C[C@@H]([C@@H]1O)N2C)OCO4 [Monoacetyl, Acetylecteinascidin 743] | 20 | 20 | 28 | – | 18 | 22 | 22 | 25 | 28 | 30 | 14 | zone of inhibition at 0.05 µg/disc (M. luteus; Micrococcus luteus, 50 ng/6.35-mm disk): 10 mm; zone of inhibition at 0.1 µg/disc (M. luteus; Micrococcus luteus, 100 ng/6.35-mm disk): 12 mm; activity relative to ecteinascidin 743 (in words) (M. luteus; relative to the original compound, antimicrobial and cytotoxic): enhanced activity over the original compound
4 | COc1cc2c(cc1OC(=O)c1ccc(Br)cc1)CCN[C@]21CS[C@@H]2c3c(OC(C)=O)c(C)c4c(c3[C@H](COC1=O)N1[C@@H]2[C@H]2c3c(cc(C)c(OC)c3O)C[C@@H]([C@@H]1O)N2C)OCO4 [p-Bromobenzoyl, p-Bromobenzoylecteinascidin 743] | 8 | 10 | 12 | – | – | – | 10 | 12 | 16 | 18 | – | –
5 | Ecteinascidin 759A | – | – | – | four to eight times less potent | – | – | – | – | – | – | – | Zone of inhibition (bacteria; 1 μg/disk): 9 mm; Zones of Inhibition (M. luteus; 800 ng/6.35-mm disk): 8 mm; Zones of Inhibition (M. luteus; 1600 ng/6.35-mm disk): 10 mm; Zones of Inhibition (CV-1 cells; 400 ng/6.35-mm disk): 10 mm; Zones of Inhibition (CV-1 cells; 800 ng/6.35-mm disk): 16 mm; Zones of Inhibition (CV-1 cells; 1600 ng/6.35-mm disk): 16 mm
